{"source": "patent US12371454B2", "about": "“Cyclic peptide compound having Kras inhibitory action” (priority 2019, dated 2025)", "note": "Starred links: 1 amine or outer side, 2 acyl side, 3 side chain; linkers in the order of their positions; H or OH if unused. Positions of bridges follow the written chain, without caps; N, C: chain ends. Non-standard residues stand in square brackets, D forms with d. Residues, ends and D or L forms follow the SMILES beside them. *: point of attachment. hPhe(3,5-F2-4-CF3) = N[C@@H](CCc1cc(F)c(C(F)(F)F)c(F)c1)C(=O)O; NMeAbu(3,3-F2-piperidino) = CN[C@@H](CCN1CCCC(F)(F)C1)C(=O)O; hPhe(3-Cl-4-CF3) = N[C@@H](CCc1ccc(C(F)(F)F)c(Cl)c1)C(=O)O; NMePhe(4-CF3) = CN[C@@H](Cc1ccc(C(F)(F)F)cc1)C(=O)O; Phe(2-OCF3) = N[C@@H](Cc1ccccc1OC(F)(F)F)C(=O)O; Phe(2-CF3) = N[C@@H](Cc1ccccc1C(F)(F)F)C(=O)O; X71 = O=C([C@H](Cc1cc(Cl)cc(I)c1)N[*:1])[*:2]; NMeAbu(4,4,4-F3) = CN[C@@H](CC(F)(F)F)C(=O)O; NMePhe(4-Me) = CN[C@@H](Cc1ccc(C)cc1)C(=O)O; X62 = O=C([C@H](Cc1cc(I)ccc1Br)N[*:1])[*:2]; NMeAla(cPent) = CN[C@@H](CC1CCCC1)C(=O)O; Phe(3-I) = N[C@@H](Cc1cccc(I)c1)C(=O)O; Pro(4,4-F2) = O=C(O)[C@@H]1CC(F)(F)CN1; X10 = CC(C)=CC[C@H](N[*:1])C(=O)[*:2]; NMeY = CN[C@@H](Cc1ccc(O)cc1)C(=O)O; NMeCha = CN[C@@H](CC1CCCCC1)C(=O)O; Hyp = O=C(O)[C@@H]1C[C@@H](O)CN1; NMeChg = CN[C@H](C(=O)O)C1CCCCC1; NMeI = CC[C@H](C)[C@H](NC)C(=O)O; NMeD = CN[C@@H](CC(=O)O)C(=O)O; NMeL = CN[C@@H](CC(C)C)C(=O)O; NMeNva = CCC[C@H](NC)C(=O)O; NMeV = CN[C@H](C(=O)O)C(C)C; NMeAbu = CC[C@H](NC)C(=O)O; NMeA = CN[C@@H](C)C(=O)O; NMeAib = CNC(C)(C)C(=O)O; Nle = CCCC[C@H](N)C(=O)O; Piperidide = C1CCN(*)CC1; Pyrrolidide = C1CCN(*)C1; Ac5c = NC1(C(=O)O)CCCC1; Aze = O=C(O)[C@@H]1CCN1; X1 = FC1(F)CN(*)CC1(F)F; NPrGly = CCCNCC(=O)O; Sar = CNCC(=O)O"}
{"biological_target": "T1, Kras and SOS1 (biotin-tagged human Kras loaded with GDP, His-tagged human SOS1) (Homo sapiens, UniProt P01116, G12D)", "T1 construct": "made in house; host or cells: E. coli (stated for Kras only)", "T1 sequence (P01116 1-188 isoform P01116-2 G12D)": "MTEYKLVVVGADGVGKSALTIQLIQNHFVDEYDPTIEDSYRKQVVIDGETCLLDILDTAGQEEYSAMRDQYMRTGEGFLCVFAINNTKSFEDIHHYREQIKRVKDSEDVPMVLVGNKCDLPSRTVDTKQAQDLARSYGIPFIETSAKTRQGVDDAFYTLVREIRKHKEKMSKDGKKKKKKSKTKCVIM", "assay": "Protein-protein interaction inhibition between Kras and SOS1 (KrasGl2D-SOS PPI) using AlphaScreen", "format": "binding", "settings": "AlphaScreen; biotin-tagged human Kras loaded with GDP, His-tagged human SOS1; read-out: KRAS G12D-SOS PPI IC50", "outline": "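Energy transfer from nickel-chelate donor beads bound to His-SOS1 to streptavidin acceptor beads bound to biotin-Kras, expressed in E. coli and loaded with GDP after purification, was monitored. Donors were excited at 680 nm; singlet oxygen reaching acceptors gave emission read at 520-620 nm.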", "units": {"IC50": "nM"}}
{"smiles": "CC[C@H](C)[C@@H]1NC(=O)[C@H](C)N(C)C(=O)C[C@@H](C(=O)N2CCCCC2)N(C)C(=O)[C@H](C(C)C)N(C)C(=O)C2(CCCC2)NC(=O)[C@@H]2CCCN2C(=O)[C@H](CCc2ccc(C(F)(F)F)c(Cl)c2)NC(=O)CN(C)C(=O)[C@H](CC2CCCCC2)N(C)C(=O)[C@@H]2CCCN2C(=O)CN(C)C1=O", "note": "[Compound 1121] ([NMeA]I[Sar]P[NMeCha][Sar][hPhe(3-Cl-4-CF3)]P[Ac5c][NMeV][NMeD]-Piperidide; lactam N-11)", "IC50": 1.4}
{"smiles": "CC[C@H](C)[C@@H]1NC(=O)[C@H](CC(C)C)N(C)C(=O)C[C@@H](C(=O)N2CCCCC2)N(C)C(=O)[C@H](CC(C)C)NC(=O)C(C)(C)N(C)C(=O)[C@H](Cc2ccccc2C(F)(F)F)NC(=O)[C@H](Cc2cccc(I)c2)NC(=O)CN(C)C(=O)[C@H](Cc2ccc(C)cc2)N(C)C(=O)CN(C)C(=O)CN(C)C1=O", "note": "[Compound 1127] ([NMeL]I[Sar][Sar][NMePhe(4-Me)][Sar][Phe(3-I)][Phe(2-CF3)][NMeAib]L[NMeD]-Piperidide; lactam N-11)", "IC50": 260}
{"smiles": "CC[C@H](C)[C@@H]1NC(=O)[C@H](CC(C)C)N(C)C(=O)C[C@@H](C(=O)N2CCCCC2)N(C)C(=O)[C@H](CC(C)C)NC(=O)C(C)(C)N(C)C(=O)[C@H](Cc2ccccc2OC(F)(F)F)NC(=O)[C@H](Cc2cccc(I)c2)NC(=O)CN(C)C(=O)[C@H](Cc2ccc(C)cc2)N(C)C(=O)[C@@H]2CCN2C(=O)[C@H](C)N(C)C1=O", "note": "[Compound 1129] ([NMeL]I[NMeA][Aze][NMePhe(4-Me)][Sar][Phe(3-I)][Phe(2-OCF3)][NMeAib]L[NMeD]-Piperidide; lactam N-11)", "IC50": 150}
{"smiles": "CCCN1CC(=O)N(C)[C@@H]([C@@H](C)CC)C(=O)N(C)[C@H](C(=O)N(C)C)CC(=O)N(C)[C@@H](CC(C)C)C(=O)N[C@@H]([C@@H](C)CC)C(=O)N(C)[C@@H](C)C(=O)N2CC[C@H]2C(=O)N(C)[C@@H](Cc2ccc(C)cc2)C(=O)N(C)CC(=O)N[C@@H](CCc2ccc(C(F)(F)F)c(Cl)c2)C(=O)N2CCC[C@H]2C1=O", "note": "[Compound 1131] ([NMeL]I[NMeA][Aze][NMePhe(4-Me)][Sar][hPhe(3-Cl-4-CF3)]P[NPrGly][NMeI][NMeD]-NMe2; lactam N-11)", "IC50": 13}
{"smiles": "CC(C)=CC[C@@H]1NC(=O)[C@H](CC(C)C)N(C)C(=O)C[C@@H](C(=O)N2CCCCC2)N(C)C(=O)[C@H](C2CCCCC2)N(C)C(=O)C2(CCCC2)NC(=O)[C@@H]2CCCN2C(=O)[C@H](CCc2ccc(C(F)(F)F)c(Cl)c2)NC(=O)CN(C)C(=O)[C@H](CC2CCCCC2)N(C)C(=O)CN(C)C(=O)CN(C)C1=O", "note": "[Compound 1134] ([NMeL][X10][Sar][Sar][NMeCha][Sar][hPhe(3-Cl-4-CF3)]P[Ac5c][NMeChg][NMeD]-Piperidide; lactam N-11)", "IC50": 6}
{"smiles": "CC[C@H](C)[C@@H]1NC(=O)[C@H](CC(C)C)N(C)C(=O)C[C@@H](C(=O)N(C)C)N(C)C(=O)[C@H]([C@@H](C)CC)N(C)C(=O)[C@H](C)NC(=O)[C@H](CCN2CCCC(F)(F)C2)N(C)C(=O)[C@H](CCc2ccc(C(F)(F)F)c(Cl)c2)NC(=O)CN(C)C(=O)[C@H](Cc2ccc(C)cc2)N(C)C(=O)[C@@H]2CCN2C(=O)[C@H](C)N(C)C1=O", "note": "[Compound 1135] ([NMeL]I[NMeA][Aze][NMePhe(4-Me)][Sar][hPhe(3-Cl-4-CF3)][NMeAbu(3,3-F2-piperidino)]A[NMeI][NMeD]-NMe2; lactam N-11)", "IC50": 5.8}
{"smiles": "CC[C@H](C)[C@@H]1NC(=O)[C@H](CC(C)C)N(C)C(=O)C[C@@H](C(=O)N2CC(F)(F)C(F)(F)C2)N(C)C(=O)[C@H](C(C)C)N(C)C(=O)C2(CCCC2)NC(=O)[C@@H]2CCCN2C(=O)[C@H](CCc2ccc(C(F)(F)F)c(Cl)c2)NC(=O)CN(C)C(=O)[C@H](CC2CCCCC2)N(C)C(=O)[C@@H]2CCN2C(=O)[C@H](C)N(C)C1=O", "note": "[Compound 1136] ([NMeL]I[NMeA][Aze][NMeCha][Sar][hPhe(3-Cl-4-CF3)]P[Ac5c][NMeV][NMeD]-X1; lactam N-11)", "IC50": 70}
{"smiles": "CCO[C@@H]1C[C@H]2C(=O)NC3(CCCC3)C(=O)N(C)[C@@H](C3CCCCC3)C(=O)N(C)[C@H](C(=O)N3CCCC3)CC(=O)N(C)[C@@H](CC(F)(F)F)C(=O)N[C@@H]([C@@H](C)CC)C(=O)N(C)CC(=O)N(C)CC(=O)N(C)[C@@H](Cc3ccc(C(F)(F)F)cc3)C(=O)N(C)CC(=O)N[C@@H](CCc3ccc(C(F)(F)F)c(Cl)c3)C(=O)N2C1", "note": "[Compound 1139] ([NMeAbu(4,4,4-F3)]I[Sar][Sar][NMePhe(4-CF3)][Sar][hPhe(3-Cl-4-CF3)][Hyp](Et)[Ac5c][NMeChg][NMeD]-Pyrrolidide; lactam N-11)", "IC50": 0.59}
{"smiles": "CC[C@H](C)[C@@H]1NC(=O)[C@H](CC2CCCC2)N(C)C(=O)C[C@@H](C(=O)N(C)C)N(C)C(=O)[C@H]([C@@H](C)CC)N(C)C(=O)C2(CCCC2)NC(=O)[C@@H]2CCCN2C(=O)[C@H](CCc2ccc(C(F)(F)F)c(Cl)c2)NC(=O)CN(C)C(=O)[C@H](Cc2ccc(C)cc2)N(C)C(=O)[C@@H]2CCN2C(=O)[C@H](C)NC1=O", "note": "[Compound 1141] ([NMeAla(cPent)]IA[Aze][NMePhe(4-Me)][Sar][hPhe(3-Cl-4-CF3)]P[Ac5c][NMeI][NMeD]-NMe2; lactam N-11)", "IC50": 0.97}
{"smiles": "CCCC[C@@H]1NC(=O)[C@H](Cc2cc(I)ccc2Br)NC(=O)CN(C)C(=O)[C@H](Cc2ccc(OC)cc2)N(C)C(=O)[C@@H]2CCN2C(=O)[C@H](C)N(C)C(=O)[C@H]([C@@H](C)CC)NC(=O)[C@H](CC)N(C)C(=O)C[C@@H](C(=O)N2CCCCC2)N(C)C(=O)[C@H](CC(C)C)NC(=O)C(C)(C)N(C)C1=O", "note": "[Compound 1155] ([NMeAbu]I[NMeA][Aze][NMeY](Me)[Sar][X62][Nle][NMeAib]L[NMeD]-Piperidide; lactam N-11)", "IC50": 170}
{"smiles": "CCCC[C@@H]1NC(=O)[C@H](Cc2cc(Cl)cc(I)c2)NC(=O)CN(C)C(=O)[C@H](Cc2ccc(OC)cc2)N(C)C(=O)[C@@H]2CCN2C(=O)[C@H](C)N(C)C(=O)[C@H]([C@@H](C)CC)NC(=O)[C@H](CC)N(C)C(=O)C[C@@H](C(=O)N2CCCCC2)N(C)C(=O)[C@H](CC(C)C)NC(=O)C(C)(C)N(C)C1=O", "note": "[Compound 1156] ([NMeAbu]I[NMeA][Aze][NMeY](Me)[Sar][X71][Nle][NMeAib]L[NMeD]-Piperidide; lactam N-11)", "IC50": 140}
{"smiles": "CC[C@H](C)[C@@H]1NC(=O)[C@H](CC(C)C)N(C)C(=O)C[C@@H](C(=O)N2CCCCC2)N(C)C(=O)[C@H](C2CCCCC2)N(C)C(=O)[C@H](C(C)C)NC(=O)[C@@H]2CCCN2C(=O)[C@H](CCc2ccc(C(F)(F)F)c(Cl)c2)NC(=O)CN(C)C(=O)[C@H](CC2CCCCC2)N(C)C(=O)CN(C)C(=O)CN(C)C1=O", "note": "[Compound 1157] ([NMeL]I[Sar][Sar][NMeCha][Sar][hPhe(3-Cl-4-CF3)]PV[NMeChg][NMeD]-Piperidide; lactam N-11)", "IC50": 1.6}
{"smiles": "CCC[C@H]1C(=O)N[C@@H]([C@@H](C)CC)C(=O)N(C)CC(=O)N(C)CC(=O)N(C)[C@@H](CC2CCCCC2)C(=O)N(C)CC(=O)N[C@@H](CCc2cc(F)c(C(F)(F)F)c(F)c2)C(=O)N2CC(F)(F)C[C@H]2C(=O)NC2(CCCC2)C(=O)N(C)[C@@H](C2CCCCC2)C(=O)N(C)[C@H](C(=O)N2CCCC2)CC(=O)N1C", "note": "[Compound 1160] ([NMeNva]I[Sar][Sar][NMeCha][Sar][hPhe(3,5-F2-4-CF3)][Pro(4,4-F2)][Ac5c][NMeChg][NMeD]-Pyrrolidide; lactam N-11)", "IC50": 0.42}
